One assay relates to TPA induced dermatitis. Kind of assay: Psoriasis model, TPA induced dermatitis. Conditions: mice, topical on the ears. The class given is in vivo. Here is the method: Inhibitory Activity in Psoriasis Model TPA induced dermatitis in mice was performed using the protocol described in Eur J Pharmacol 507, 253-259, 2005. Balb/c mice were acclimatized to laboratory conditions 5-7 days prior to the start of the experiment. They were randomly distributed to various groups based on body weight. The baseline ear thickness of the animal's both ears using thickness gauge was measured. For each animal 20 μl of that contains 2.5 μg of TPA was applied with help of micropipettor with disposable tips. Test compound was applied topically to both inner and outer surface of the both the ears i.e. left and right ear with acetone as control after 30 minutes 6 hours and 24 hours after application of TPA (20 μl). Ear thickness was measured after 6 and 24 hours in animals, while for ear weight ears were excised under anesthesia and weighed.

In another assay the test system is LPS induced neutrophilia. Description: LPS induced neutrophilia model for asthma and COPD. The class given is in vivo. The settings on record: Wistar rats, BAL 4 h after LPS. Here is the method: LPS Induced Neutrophilia Model for Asthma and COPD LPS induced neutrophilia in Wistar rats was performed using the protocol described in Pulm Pharmacol & Ther 17, 3, 133-140, 2004. Male Wistar rats were acclimatized to laboratory conditions five to seven days prior to the start of the experiment. They were randomly distributed to various groups based on body weight. Except normal group all the animals were exposed to LPS 100 μg/ml for 40 min. The rats were dosed with the test compound suspended in the vehicle containing 0.25% carboxymethylcellulose before half an hour of LPS exposure. BAL was performed 4 h after LPS exposure, total cell count and DLC was done and compared with control and the standard drug. Percentage Inhibition for neutrophilia was calculated.

The next assay deals with PDE4. Description: PDE4 activity (source human U937 cells). The class given is biochemical. Conditions: read-out: PDE4 inhibition IC50 (nm). Here is the method: PDE4 inhibition was measured by following a literature assay procedure (Cortizo J et al., Br J. Pharmacol., 1993, 108: 562-568. The assay method involves the following conditions.
Substrate: 1.01 μM [^3H] camp+camp
Pre-Incubation Time/Temperature: 15 minutes at 25° C.
Incubation Time/Temperature. 20 minutes at 25° C.
Incubation buffer: 50 mM Tris-HCl, pH 7.5, 5 mM MgCl2
Quantitation method: Quantitation of [^3H] Adenosine
Significance criteria: ≧50% of max stimulation or inhibition

Assay [1] has as its system TNF-α. Kind of assay: LPS induced sepsis for measurement of TNF-α inhibition in mice. The assay is classed as in vivo. Conditions: Mus musculus; TNF alpha inhibition in mice sepsis model. Here is the method: LPS Induced Sepsis for Measurement of TNF-α Inhibition in Mice
The LPS induced sepsis model in mice was performed as described by Les sekut et al (J Lab Clin Med 1994; 124, 813-20). Female Swiss albino mice were selected and the body weights were equivalent within each group. The mice were fasted for 20 hours with free access to water. The mice were dosed orally with the test compound suspended in vehicle containing 0.5% Tween 80 in 0.25% Carboxy-methylcellulose sodium salt. The control mice were administered the vehicle alone. After 30 minutes of oral dosing, mice were injected with 500 μg of Lipopolysaccharide (Escherichia coli, LPS: B4 from Siga) in phosphate buffer saline solution into the intraperitoneal cavity of the mice. After 90 minutes of LPS administration mice were bled via retro-orbital sinus puncture. Blood samples were stored overnight at 4° C. Serum samples were collected by centrifuging the samples at 4000 rpm for 15 minutes at 4° C. Immediately the serum samples were analyzed for TNF-α levels using commercially available mouse TNF-α ELISA kit (Amersham Biosciences) and assay was performed by the manufacturer instruction.
ED50 Measurement of TNF Alpha Inhibition in Mice Sepsis Model

Assay [2] deals with TNF-α. Kind of assay: In vitro measurement of TNF-α in human whole blood. The assay is classed as cell-based. Here is the method:
In Vitro Measurement of TNF-α in Human Whole Blood
This assay determines the effect of test compounds on the production of TNF-α in human whole blood. Compounds were tested for their ability to inhibit the activity of TNF-α in whole blood.
Heparanised blood from a healthy human volunteer was collected and diluted with RPMI 1640 incomplete medium (1:5 dilution). Diluted blood was aliquoted into 96 well plate 170 ul/well immediately. 20 ul of the drug of different concentrations was added to the respective wells with a control. The plate was incubated in 37° C. thermo mixer at 400 rpm for 60-70 minutes. After the incubation 10 ul of the LPS (from E. coli B4) was added to get the final concentration of 1 ug/well. The plate was again incubated in the 37° C. thermo mixer at 400 rpm 120 minutes in the thermo mixer and then left in the 37° C. CO2 incubator for two more hours so that the total stimulation time is four hours. The plasma was collected carefully without disturbing the pellet at the bottom and stored at −20° C. Then TNF-α levels were estimated using the R&D systems ELISA kit duoset kit (DY210).

Assay [3] relates to TNF-α. Kind of assay: In vitro measurement of TNF-α in human PBMC. The class given is cell-based. Here is the method:
In Vitro Measurement of TNF-α in Human Peripheral Blood Mononuclear Cells
This assay determines the effect of test compounds on the production of TNF a in human Peripheral Blood Mononuclear Cells (PBMC). Compounds were tested for their ability to inhibit the activity of TNF α in human PBMC. PBMC were isolated from blood (of healthy volunteers) using BD Vacutainer CPT™ (Cell preparation tube, BD Bio Science) and suspended in RPMI medium (Physiol. Res. 52, 593-598, 2003). The test compounds were pre-incubated with PBMC (0.5 million/incubation well) for 15 minutes at 37° C. and then stimulated with Lipopolysaccharide (Escherichia coli: B4; 1 μg/ml) for 18 hours at 37° C. in 5% CO2. The levels of TNF-α in the cell culture medium were estimated using enzyme-linked immunosorbent assay performed in a 96 well format as per the procedure of the manufacturer (Cayman Chemical, Ann Arbor, USA).

The target in the next assay is T1, PDE4B enzyme (Homo sapiens, UniProt Q07343).
T1 construct: purchased Calbiochem
Description: PDE4 assay with pure PDE4B enzyme (Calbiochem). The assay is classed as biochemical.

The source of these data is patent US8420653B2, “Pyrimidine compounds and their uses” (Orchid Chemicals & Pharmaceuticals Limited, priority 2008, dated 2013).

The structures appear in SMILES notation.

T1 sequence (Q07343 whole entry, species assumed): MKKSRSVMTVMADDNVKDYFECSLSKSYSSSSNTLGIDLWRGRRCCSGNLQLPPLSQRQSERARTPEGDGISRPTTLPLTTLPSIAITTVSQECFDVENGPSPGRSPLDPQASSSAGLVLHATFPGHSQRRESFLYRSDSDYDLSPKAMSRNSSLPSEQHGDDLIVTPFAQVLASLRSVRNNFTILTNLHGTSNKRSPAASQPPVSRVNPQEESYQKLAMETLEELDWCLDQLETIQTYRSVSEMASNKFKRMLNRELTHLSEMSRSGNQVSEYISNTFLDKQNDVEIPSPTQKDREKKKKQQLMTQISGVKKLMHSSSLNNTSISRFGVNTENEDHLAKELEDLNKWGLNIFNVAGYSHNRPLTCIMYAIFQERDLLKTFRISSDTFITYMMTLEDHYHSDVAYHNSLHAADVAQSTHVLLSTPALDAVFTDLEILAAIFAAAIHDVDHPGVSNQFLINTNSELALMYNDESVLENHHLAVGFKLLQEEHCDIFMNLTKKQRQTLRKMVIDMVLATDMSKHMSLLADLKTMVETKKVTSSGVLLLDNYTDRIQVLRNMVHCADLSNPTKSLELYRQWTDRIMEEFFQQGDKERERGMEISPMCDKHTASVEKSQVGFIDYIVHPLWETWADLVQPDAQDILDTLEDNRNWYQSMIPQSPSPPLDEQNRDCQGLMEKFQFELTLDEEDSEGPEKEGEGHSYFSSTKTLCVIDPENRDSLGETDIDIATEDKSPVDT

The IC50 is the concentration that gives 50% inhibition. Usually ED50 stands for the midpoint of the dose-response relation. The inhibition is the drop in the measured response relative to a control, in per cent. For `NS(=O)(=O)c1cccc(-c2c(-c3ccccc3)nc(C(F)(F)F)nc2N2CCOCC2)c1` [Example 98, 3-[4-Morpholin-4-yl-2-(trifluoromethyl)-6-phenyl-pyrimidin-5-yl]benzenesulfonamide], the “Psoriasis-acute TPA induced dermatitis % inhibition Ear Wt” value with TPA induced dermatitis is listed as 11.84%. Moreover, the “Psoriasis-acute TPA induced dermatitis % inhibition Ear thickness” value with TPA induced dermatitis was determined as 41.10%. Also, the “LPS induced neutrophilia % inhibition at 10 mg/kg” value in the assay on LPS induced neutrophilia is 31.73%. For the same molecule, the IC50 in the assay on PDE4 stood at 7 nM. In the assay on TNF-α [1], this molecule registered an ED50 of 0.01 mg/kg. Moreover, the figures for the inhibition at 1 µM in the assay with TNF-α [2] (Conc. (1 μM)) and in the assay with TNF-α [3] (Conc. (1 μM)) were 40.6% and 94.1%, respectively. For the same molecule, the inhibition at 10 µM with TNF-α [2] (Conc. (10 μM)) amounted to 62%; in the assay on TNF-α [3] (Conc. (10 μM)) it was 94.6%; against PDE4B enzyme, 76.1%.
